Assay results as given in US20120083471A1, “Novel Compounds, Pharmaceutical Compositions Containing Same, Methods of Use for Same, and Methods for Preparing Same” (priority 2008, published 2012).
“Also recorded” adds a separate entry of the source.

Legend:
Format in all cases: in vivo, mouse
DIO mice [1] = test: Acute single-dose FSG67 treatment of DIO mice (body weight, food intake); details: single 20 mg/kg ip
Source text: DIO and lean mouse models. All animal experimentation was done in accordance with guidelines on animal care and use as established by the Johns Hopkins University School of Medicine IACUC. DIO C57BL6J male mice were obtained from Jackson Laboratory (Bar Harbor, ME) and fed a synthetic diet comprised of 60% calories from fat, 20% from carbohydrate, and 20% from protein (5.2 kcal/g) post-weaning through the experimental procedures (D12492i, Research Diets, Inc., New Brunswick, N.J.). […]
For acute studies, 6 DIO or lean mice were treated with a single dose of FSG67 (20 mg/kg, i.p.) approximately 3 hrs past lights-on. Animal weights and food consumption were measured 18 h after treatment. […] Body weight and food intake were measured daily. In one study, a cohort of mice was pair-fed with amounts consumed by the FSG67-treated animals and mice were monitored with indirect calorimetry (Oxymax Equal Flow System®, Columbus Instruments, Columbus, Ohio). Measurements of VO2 (ml/kg/hr) and VCO2 (ml/kg/hr) were performed and recorded every 15 min. The respiratory exchange ratio (RER) was calculated by Oxymax software, version 5.9, and is defined as ratio of VCO2 to VO2 33. […] Tissues were harvested immediately for RNA extraction; serum was collected and analyzed for glucose, cholesterol, and triglyceride measurements (Bioanalytics, Gaithersburg, Md.). […]

lean mice = test: Intracerebroventricular FSG67 treatment of lean mice; details: for weight lost: within 24 h
Description: Chronic lateral cerebroventricle cannulas. For experiments requiring intracerebroventricular (i.c.v.) administration of compounds, mice were outfitted unilaterally with chronic indwelling cannulas aimed at the lateral cerebroventricle. After mice recovered from surgeries for one week, cannula placements were assessed by measuring food intake in response to i.c.v. neuropeptide Y (NPY, American Peptide Co., CA). Mice were given NPY (0.25 ηmol/2 μl injection) or sterile 0.9% saline vehicle via the i.c.v. cannula, and allowed 1-h access to grain-based pellets during the light phase. Mice that ate at least 0.5 g of food after NPY were used in the experiments. Eleven mice were given a 2 μL injection of RPMI-1640 without glucose (Cambrex, Md.) for vehicle control. Three days later, six mice received a 100 nmole dose of FSG67 in the vehicle while 5 mice received 320 nmoles of compound.
We administered FSG67 icy to determine whether GPAT inhibition acts centrally to reduce food intake. Lean mice were treated with FSG67 icy at doses 100 and 320 nmoles (approximately […] less than the 5 mg/kg single day systemic dose). Within 24 h, mice treated with 100 nmoles lost 0.75±0.4 g (p=0.016) while the 320 nmole group lost 1.8±0.3 g (p=0.0003); vehicle controls gained 0.43±0.1 g and 0.33±0.1 g respectively (FIG. 15a). The animal weight was regained within 48 h without a significant rebound (data not shown). […] Within 48 h, the animals began eating normally with slight hyperphagia in the 320 nmole group on days 3 and 4 (data not shown).

[2] = tested on: hypothalamic neuropeptide expression; test: Real-time RT-PCR of hypothalamic neuropeptides in DIO mice
Description: (§1) For acute studies, 6 DIO or lean mice were treated with a single dose of FSG67 (20 mg/kg, i.p.) approximately 3 hrs past lights-on. Animal weights and food consumption were measured 18 h after treatment. Following euthanization, the hypothalmuses were harvested to measure orexigenic and anorexigenic neuropeptide gene expression. In the chronic studies, DIO mice, 4-10 animals per group, were treated daily with FSG67 (5 mg/kg, i.p.) or with RMPI vehicle for the days indicated. Body weight and food intake were measured daily. In one study, a cohort of mice was pair-fed with amounts consumed by the FSG67-treated animals and mice were monitored with indirect calorimetry (Oxymax Equal Flow System®, Columbus Instruments, Columbus, Ohio). Measurements of VO2 (ml/kg/hr) and VCO2 (ml/kg/hr) were performed and recorded every 15 min. The respiratory exchange ratio (RER) was calculated by Oxymax software, version 5.9, and is defined as ratio of VCO2 to VO2 33. After completion of the treatment course, animals were euthanized by CO2 inhalation 4 hrs following the final dose of FSG67. Tissues were harvested immediately for RNA extraction; serum was collected and analyzed for glucose, cholesterol, and triglyceride measurements (Bioanalytics, Gaithersburg, Md.). Fresh liver tissue was snap frozen in liquid N2, sectioned, and stained with hematoxylin and Oil Red O to visualize triglyceride droplets.
Real-time RT-PCR. Hypothalamus, liver, and WAT of DIO and lean mice were harvested and immediately frozen in liquid nitrogen. Total RNA was isolated and real-time quantitative RT-PCR was performed as previously described (13). Gene-specific primer pairs were designed using Primer3 software (http://www-genome.wi.mit.edu/cgi-bin/primer/primer3_www.cgi/). […]
Acute and chronic FSG67 treatment altered hypothalamic neuropeptide expression. Hypothalamic peptide expression was measured in the lean and DIO mice treated with a single dose of FSG67 (see FIG. 11) and in the chronically treated DIO mice (see FIG. 12) to further asses the mechanism responsible for reduced food intake. […]

DIO mice [3] = test: Serum chemistry and Oil Red O liver histology of 16 d treated DIO mice
Description: as §1
Consistent with the systemic reduction in adiposity, GPAT inhibition reversed hepatic steatosis in DIO mice. […] Cholesterol levels remained unchanged (FIG. 14d). The resolution of the hepatic steatosis in FSG67 treated mice may have contributed to the normalization of blood glucose levels.

Compound: CCCCCCCCCS(=O)(=O)Nc1ccccc1C(=O)O [Compound 15g, 2-(Nonylsulfonamido)benzoic acid]
- food consumption (DIO mice [1]): 0.5 ± 0.1 g
- food consumption, % of vehicle control (DIO mice [1]): 41.6%
- weight lost (lean mice; 100 nmoles icv): 0.75 ± 0.4 g
- chow intake (lean mice; 320 nmole icv): 2.5 ± 0.3 g
- weight lost (lean mice; 320 nmole icv): 1.8 ± 0.3 g
- mouse weight one day following treatment (lean mice; 100 and 320 nmole icv): significantly reduced
- significant reduction in food intake (lean mice; 100 vs 320 nmole icv, listed as FSG67): only occurred in the 320 nmole treatment group
- time to regain animal weight (lean mice; icv, without significant rebound): ≤ 48 h
- hypothalamic AGRP, POMC and CART expression ([2]; 16 d treated): unaffected
- hypothalamic NPY expression ([2]; 16 d treated, vs vehicle controls, listed as FSG67): significant reduction
- hypothalamic AGRP expression ([2]; single dose, vs vehicle controls and food-deprived (data not shown)): significantly increased
- liver histology: inflammation, necrosis, hepatocellular injury (DIO mice [3]): No inflammation, necrosis, or hepatocellular injury
- reduction in serum triglyceride levels vs pair-fed or vehicle (DIO mice [3]): not statistically significant
- serum glucose (DIO mice [3]; 5 mg/kg ip daily): 153.3 ± 10.5 mg/dL
- serum triglyceride (DIO mice [3]; 5 mg/kg ip daily): 111.3 ± 10.9 mg/dL
- hepatic steatosis (Oil red O liver sections) (DIO mice [3]; listed as FSG67): nearly complete resolution; also recorded: almost complete amelioration of fat accumulation
- serum cholesterol levels (DIO mice [3]; listed as FSG67): unchanged; also recorded: unaffected
